Results: patent US8475848B2, “Cosmetic composition having anti-radical properties and corresponding application method” (Yves Saint Laurent Parfums, priority 2007, dated 2013)

Assays:
[1] = DPPH test on pure extracts (reduction of DPPH, optical density); assay type: biochemical; settings: for % control (OD) / Activity (DPPH reduction): DPPH test
Excerpt: (§1) The activity of the pure extracts was studied by means of two biochemical tests: one was based on the reduction of 2,2-diphenyl-1-picrylhydrazyl (DPPH) by the anti-oxidants, and the other was based on the measurement of hydrogen peroxide (H2O2) in the reaction media. H2O2 is trapped by a specific reagent, “AmplexRed”. 2,2-diphenyl-1-picrylhydrazyl (DPPH) is a stable radical compound that is reduced to 1,1-diphenyl-2-picrylhydrazine by anti-oxidants. This reduction is followed by a color change in the DPPH solution (optical density measurement).
(§2) The pure extracts as well as the anti-oxidant references (α-tocopherol and BHA: butylated hydroxyanisole for DPPH, BHA alone for AmplexRed) were dissolved in ethanol. Controls using ethanol alone were produced in order to verify the absence of interference of this solvent.
The products for this test were tested starting from a concentration of 1 mg/ml in a power of ten series. The alpha-tocopherol positive control was tested at a concentration of 0.1 μM [micromolar] and the BHA was tested at a concentration of 50 μM.

[2] = H2O2/AmplexRed test on pure extracts (fluorescence); assay type: biochemical
Excerpt: as §1
AmplexRed is a compound which reacts in a stoichiometric manner with H2O2, producing a fluorescent red compound, resofurin, which can be measured by fluorescence. This test can detect small quantities of H2O2.
as §2
The products for this test were tested starting from a concentration of 1 μg/ml in a power of ten series. The BHA positive control was tested at concentrations of 50 μM and 500 μM.

irradiated skin explants = assay: Lipid peroxidation test on irradiated skin explants, extracts associated with an insoluble mineral substrate dispersed in carnation oil; assay type: cell-based; settings: reference (positive control), 5 mg/cm^2 topical, UVA+B
Procedure: Study of the activity of extracts associated with an insoluble mineral substrate dispersed in carnation oil were carried out using a lipid peroxidation test on irradiated skin explants. This test, which was carried out by applying the products topically, meant that the effects of non-hydrosoluble extracts could be studied in vitro.
Upon receipt, the skin explants were cut and placed in culture.
The test products or the reference (positive control=BHA) were then applied to the surface of the explants in a quantity of 5 mg/cm^2 [milligrams/square centimeter] and the explants were placed in an incubator for 24 h [hours] at 37° C. in the presence of 95% air and 5% CO2.
After incubation and washing, the explants for each series were exposed to irradiation using ultraviolet A and B (UVA+B) radiation. Irradiation was carried out using a SOL500 Sun Simulator lamp with an H2 filter and the exposure conditions were as follows: • UVA+B filter: • UVA: power 11.5 mW/cm^2 [milliwatt/square centimeter] i.e. 678.6 mJ/cm^2/minute [millijoule/square centimeter/minute]; • UVB: power 0.78 mW/cm^2, i.e. 47.1 mJ/cm^2/minute; • Irradiation period: 21 minutes; • i.e. approximately 1 J/cm^2 of UVB and 14 J/cm^2 of UVA.
Three other untreated control explants were kept away from the light. […]
The epidermis was then extracted and the viability of the cells was evaluated using MTT reduction. […]

SMILES	% control (OD) ([1]; 50 μM)	Activity (DPPH reduction) ([1]; 50 μM)	% control (fluorescence intensity) ([2]; 50 μM)	Activity (reduction of free H2O2) ([2]; 50 μM)	% control (fluorescence intensity) ([2]; 500 μM)	Activity (reduction of free H2O2) ([2]; 500 μM)	production of lipid peroxides after irradiation (in words) (irradiated skin explants)	% control (OD) ([1]; 0.1 μM)	Activity (DPPH reduction) ([1]; 0.1 μM)	reduction of DPPH (in words) ([1]; reference, 0.1 μM)
COc1ccc(O)c(C(C)(C)C)c1 [BHA, butylated hydroxyanisole]	74%	+/− (25% reduction)	38%	++ (strong reduction more than 50%)	34%	++ (strong reduction more than 50%)	greatly reduced the production of lipid peroxides			
Cc1c(C)c2c(c(C)c1O)CC[C@@](C)(CCC[C@H](C)CCC[C@H](C)CCCC(C)C)O2 [Tocopherol, α-tocopherol]								9%	++ (large reduction more than 50%)	clearly reduced the DPPH
